Experimental findings from US7601687B2, “Mechanism for identifying drugs for the treatment of type II diabetes” (BioCrine AB, priority 2006, dated 2009) are described below.

One assay relates to βGK mRNA. The experiment in a line: Endogenous βGK mRNA levels in isolated islets of wild type and βIRKO mice. It counts as cell-based, mouse. The following applies: 16.7 mM glucose or 5 mU insulin/ml. Here is the method: (§1) RNA was prepared 60 min after start of stimulation. Amounts of insulin, βGK and β-actln mRNA were quantified by comparative RT-PCR. […] Data are shown as mean values ± S.E. (n=3). (B-D) On-line monitoring of βGK promoter-driven GFP expression (white bars) and insulin promoter-driven DsRed expression (black bars) in co-transfected HIT cells (B,C) or islet cells (B,D).
(§2) Insulin-producing HIT-T15 cells were obtained from ATCC. HIT cells were reported to show glucose responsiveness at subphysiological concentrations between 0.1 and 2 mM (Sharma et al., 1995). HIT cells were grown in RPMI 1640 medium supplemented with 100 units/ml penicillin, 100 μg/ml streptomycin, 2 mM glutamine and 10% fetal calf serum at 5% CO2 and 37° C. Pancreatic islets were isolated from normally fed male Wistar rats and from mice by collagenase digestion. […]
(§3) RNA Analysis Levels of βGK mRNA were analyzed by RNase-protection assays and comparative RT-PCR. […] Quantification of the protected complexes was performed by phosphorimaging. […] Levels of μGK mRNA were analyzed by RT-PCR using primers 5′-[…]-3′(SEQ ID NO: 1) and 5′-[…]-3′(SEQ ID NO: 2) for characterizing μGK mRNA in HIT cells and primers 5′-[…]-3′(SEQ ID NO: 3) and 5′-[…]-3′(SEQ ID NO: 4) for μGK mRNA in rat and mouse pancreatic islets and islet cells. Levels of μ-actin mRNA were analyzed by RT-PCR using primers 5′-[…]-3′(SEQ ID NO: 5) and 5′-[…]-3′(SEQ ID NO: 6). […]

The test system of the next assay is insulin mRNA. Kind of assay: Endogenous insulin mRNA levels in isolated islets of wild type and βIRKO mice. The following applies: 16.7 mM glucose or 5 mU insulin/ml. It counts as cell-based, mouse. The method, then: as §1, §2, §3
A further assay has as its system rat βGK promoter. Kind of assay: βGK promoter-driven GFP expression in co-transfected human islet cells. It counts as cell-based. The following applies: 5 mU/ml insulin for 5 min, sub-stimulatory glucose. Here is the method: Data are presented as the ratio of fluorescence obtained at minutes 240 and 60 and represent mean values ±S.E. (n=11).
Detection of fluorescence by digital imaging fluorescence microscopy was performed as described previously (Leibiger et al., 1998a; Leibiger et al., 1998b). Briefly, transfected cells were grown on 24-mm glass coverslips. After stimulation the coverslips were placed into a perifusion chamber which was mounted on an inverted microscope (Zeiss Axiovert 135TV). Temperature was kept at 37° C. and the cells were perfused with RPMI 1640 medium. The objective lens used was a Zeiss-Fluar ×40/1.30 oil Imm Korr. Fluorescence imaging was performed with a cooled charged-coupled device camera (CH250 with KAF 1400, Photometrics, Tucson, Ariz.) connected to an imaging system (Inovision) with fluorescence excitation from a SPEX fluorolog-2 CM1T11I spectrofluorometer (Spex Industries). […]
On-line monitoring was initiated 60 min following the start of stimulation and the 60-min value of GFP- or DsRed-fluorescence was set to 1.0. Cells to be monitored were chosen randomly at minute 60 from six fields of vision and fluorescence was monitored up to minute 240. By overlaying the fluorescence and phase-contrast images, the position of cells on the coverslip could be checked. Fluorescence intensity was calculated by using the ISee-software for UNIX (Inovision Corporation).

With insulin, the “endogenous βGK mRNA levels upon stimulation” value is on record as “no increase” with βGK mRNA (islets from βIRKO mice) and “increase” with βGK mRNA (islets of wild type mice). Further, the “endogenous insulin mRNA levels upon stimulation” value is on record as “no increase” with insulin mRNA (islets from βIRKO mice) and “increase” in the assay on insulin mRNA (islets of wild type mice). Further, the “βGK promoter-driven GFP expression upon insulin stimulation” value in the assay with rat βGK promoter is given as “up-regulation”.
